Data taken from the NIST ThermoML archive (doi:10.1021/je060271a).
“And” between values parts separate entries of the source, which are not always exact repeats. Equal entries are not always repeated.

Settings: 283.15 K, Liquid, Vibrating tube method

CCCCCC(=O)OCC(COC(=O)CCCCC)(COC(=O)CCCCC)COC(=O)CCCCC [pentaerythritol tetrahexanoate]
Settings	mass density
9284.9 kPa	1009.6 kg/m3
9306.2 kPa	1009.5 kg/m3
9324.2 kPa	1009.5 kg/m3
9341.7 kPa	1009.5 kg/m3
9359.5 kPa	1009.5 kg/m3
9380.7 kPa	1009.4 kg/m3
9398.1 kPa	1009.6 kg/m3
9416 kPa	1009.6 kg/m3
9436.7 kPa	1009.6 kg/m3
9454.6 kPa	1009.6 kg/m3
9473 kPa	1009.6 kg/m3
9490.6 kPa	1009.6 kg/m3
9508.2 kPa	1009.7 kg/m3
9529 kPa	1009.7 kg/m3
9546.3 kPa	1009.7 kg/m3
9563.7 kPa	1009.7 kg/m3
9585 kPa	1009.7 kg/m3
9602.4 kPa	1009.6 kg/m3
9623.6 kPa	1009.7 kg/m3
9642.2 kPa	1009.7 kg/m3
9660.2 kPa	1009.7 kg/m3
9681 kPa	1009.8 kg/m3
9690.2 kPa	1009.7 kg/m3
9690.5 kPa	1009.7 kg/m3
9691 kPa	1009.8 kg/m3
9691.2 kPa	1009.9 kg/m3
9691.4 kPa	1009.8 kg/m3
9691.5 kPa	1009.7 kg/m3
9691.6 kPa	1009.8 kg/m3
9691.9 kPa	1009.7 kg/m3
9692 kPa	1009.8 kg/m3
9692.1 kPa	1009.6 kg/m3
9692.4 kPa	1009.7 kg/m3
9692.6 kPa	1009.8 kg/m3
9692.8 kPa	1009.7 kg/m3
9693.3 kPa	1009.8 kg/m3
9693.4 kPa	1009.8 kg/m3
9693.8 kPa	1009.8 kg/m3
9693.9 kPa	1009.8 kg/m3
9694.3 kPa	1009.8 kg/m3
9694.5 kPa	1009.8 kg/m3
9695 kPa	1009.8 kg/m3
9695.1 kPa	1009.9 kg/m3
9695.3 kPa	1009.9 kg/m3
9695.7 kPa	1009.7 kg/m3 and 1009.8 kg/m3
9695.8 kPa	1009.9 kg/m3
9696.2 kPa	1009.8 kg/m3
9696.4 kPa	1009.8 kg/m3
9696.5 kPa	1009.8 kg/m3
9696.7 kPa	1009.8 kg/m3
9696.9 kPa	1009.8 kg/m3
9697.2 kPa	1009.8 kg/m3
9697.6 kPa	1009.8 kg/m3
9698.1 kPa	1009.5 kg/m3 and 1009.8 kg/m3
9698.2 kPa	1009.8 kg/m3
9698.3 kPa	1009.9 kg/m3
9698.9 kPa	1009.7 kg/m3
9699 kPa	1009.7 kg/m3
9699.1 kPa	1009.7 kg/m3
9699.3 kPa	1009.7 kg/m3
9699.6 kPa	1009.7 kg/m3
9699.8 kPa	1009.7 kg/m3 and 1009.9 kg/m3
9700 kPa	1009.8 kg/m3 and 1009.6 kg/m3
9700.1 kPa	1009.8 kg/m3 and 1009.7 kg/m3
9700.3 kPa	1009.7 kg/m3 and 1009.8 kg/m3
9700.7 kPa	1009.7 kg/m3
9700.8 kPa	1009.7 kg/m3
9701 kPa	1009.7 kg/m3
9701.5 kPa	1009.8 kg/m3 and 1009.7 kg/m3
9701.7 kPa	1009.8 kg/m3
9754.8 kPa	1009.8 kg/m3
9769.2 kPa	1009.7 kg/m3
9783.6 kPa	1009.8 kg/m3
9797.3 kPa	1009.7 kg/m3
9814.5 kPa	1009.7 kg/m3
9828.7 kPa	1009.8 kg/m3
9845.7 kPa	1009.7 kg/m3
9859.7 kPa	1009.8 kg/m3
9874.3 kPa	1009.8 kg/m3
9888.8 kPa	1009.8 kg/m3
9905.8 kPa	1009.8 kg/m3
9919.9 kPa	1009.9 kg/m3
9934.6 kPa	1009.9 kg/m3
9951.8 kPa	1009.9 kg/m3
9966.6 kPa	1009.9 kg/m3
9984 kPa	1009.8 kg/m3
9998.7 kPa	1009.8 kg/m3
10013 kPa	1009.9 kg/m3
10027 kPa	1010 kg/m3
10045 kPa	1009.8 kg/m3
10060 kPa	1009.9 kg/m3
10074 kPa	1009.9 kg/m3
10091 kPa	1010 kg/m3
10106 kPa	1010 kg/m3
10120 kPa	1009.9 kg/m3
10135 kPa	1009.9 kg/m3
10152 kPa	1010 kg/m3
10166 kPa	1010 kg/m3
10181 kPa	1010 kg/m3
10195 kPa	1010 kg/m3
10212 kPa	1010.1 kg/m3
10226 kPa	1010.1 kg/m3
10244 kPa	1010 kg/m3
10258 kPa	1010 kg/m3
10273 kPa	1010 kg/m3
10288 kPa	1009.9 kg/m3
10305 kPa	1010.1 kg/m3
10320 kPa	1010 kg/m3
10334 kPa	1010.1 kg/m3
10352 kPa	1010.1 kg/m3
10367 kPa	1010.2 kg/m3
10382 kPa	1010.1 kg/m3
10400 kPa	1010.1 kg/m3
10415 kPa	1010.2 kg/m3
10430 kPa	1010.1 kg/m3
10445 kPa	1010.1 kg/m3
10463 kPa	1010.2 kg/m3
10478 kPa	1010.2 kg/m3
10496 kPa	1010.1 kg/m3
10511 kPa	1010.2 kg/m3
10526 kPa	1010.1 kg/m3
10541 kPa	1010.3 kg/m3
10559 kPa	1010.2 kg/m3
10575 kPa	1010.3 kg/m3
10590 kPa	1010.2 kg/m3
10608 kPa	1010.2 kg/m3
10622 kPa	1010.3 kg/m3
10638 kPa	1010.2 kg/m3
10656 kPa	1010.3 kg/m3
10671 kPa	1010.4 kg/m3
10686 kPa	1010.3 kg/m3
10704 kPa	1010.4 kg/m3
10719 kPa	1010.2 kg/m3
10733 kPa	1010.3 kg/m3
10749 kPa	1010.2 kg/m3
10766 kPa	1010.3 kg/m3
10780 kPa	1010.3 kg/m3
10798 kPa	1010.3 kg/m3
10812 kPa	1010.4 kg/m3
10826 kPa	1010.4 kg/m3
10840 kPa	1010.4 kg/m3
10858 kPa	1010.4 kg/m3
10872 kPa	1010.3 kg/m3
10887 kPa	1010.4 kg/m3
10904 kPa	1010.4 kg/m3
